Assay results taken from article PMC6615261, “Repurposing Azithromycin and Rifampicin Against Gram-Negative Pathogens by Combination With Peptidomimetics” (Frontiers in Cellular and Infection Microbiology, 2019).

Experiments:
[1] = test system: E. coli clinical isolates and reference strains; assay: MIC of fixed-ratio peptidomimetic 1-antibiotic combinations in clinical isolates and reference strains; type: cell-based, Escherichia coli; conditions: in combination with 0.5–1 μM peptidomimetic 1
Text: (§1) Bacterial strains used in this study comprise MDR clinical isolates of E. coli ST131 (Cerquetti et al., [2010]) and K. pneumoniae ST258 (Jana et al., [2017]), and American type culture collection (ATCC) strains: ATCC 25922 (E. coli), ATCC 13883 (K. pneumoniae), and ATCC 27853 (P. aeruginosa). Additional clinical isolates of E. coli, K. pneumoniae, and P. aeruginosa resistant to β-lactams (including carbapenems and cephalosporins) were provided by Laurent Poirel, Université de Fribourg, Switzerland. The following growth media was routinely used for bacterial culturing: Luria-Burtani (LB), cation-adjusted Mueller-Hinton agar (MHA) and broth (MHB II). All assays were performed in cation-adjusted MHA or MHB II. Antibiotics were purchased from Sigma-Aldrich and the peptidomimetic collection (Table S1) was curated and provided by Henrik Franzyk. […]
(§2) Minimal inhibitory concentrations (MICs) of peptidomimetics, antibiotics and their combinations were determined by broth microdilution according to the Clinical Laboratory Standards Institute performance standards (Clinical and Laboratory Standards Institute, [2013]). […] Potentiation of additional antibiotics by peptidomimetics was determined by using commercial 96-well plates containing varied concentrations of standard antibiotics (COMPAN1F; Trek Diagnostic Systems Inc.). The peptidomimetics were added immediately prior to inoculation with pathogen, and then MICs were determined as above. The MICs of peptidomimetic/antibiotic combinations were determined according to the method above, and the concentration ratios were selected based upon checkerboard results with 2:1 and 1:4 ratio of peptidomimetic with rifampicin or azithromycin, respectively. Minimal bactericidal concentrations (MBCs) were determined by using growth-curve assay plates. […] Growth was recorded at 10 min intervals as optical density (OD) at 600 nm during 24 h. […]

K. pneumoniae ST258 [2] = conditions: K. pneumoniae ST258; growth-curve assay
Method: (§3) Minimal inhibitory concentrations (MICs) of peptidomimetics, antibiotics and their combinations were determined by broth microdilution according to the Clinical Laboratory Standards Institute performance standards (Clinical and Laboratory Standards Institute, [2013]). […] Since rifampicin and azithromycin mainly are used to treat infections with Gram-positive pathogens only CLSI clinical breakpoints were available for such bacteria. […] Potentiation of additional antibiotics by peptidomimetics was determined by using commercial 96-well plates containing varied concentrations of standard antibiotics (COMPAN1F; Trek Diagnostic Systems Inc.). The peptidomimetics were added immediately prior to inoculation with pathogen, and then MICs were determined as above. The MICs of peptidomimetic/antibiotic combinations were determined according to the method above, and the concentration ratios were selected based upon checkerboard results with 2:1 and 1:4 ratio of peptidomimetic with rifampicin or azithromycin, respectively. Minimal bactericidal concentrations (MBCs) were determined by using growth-curve assay plates. MIC plates were prepared as above, and then the plates were incubated at 37°C with continuous shaking. Growth was recorded at 10 min intervals as optical density (OD) at 600 nm during 24 h. At 24 h, for wells without growth, a sample was diluted 10-fold in sterile saline (0.9% sodium chloride) and plated onto MHA, following CLSI guidelines (Clinical and Laboratory Standards Institute, [1999]).

P. aeruginosa ATTC 27853 = conditions: P. aeruginosa ATTC 27853; growth-curve assay
Method: as §3

E. coli ST131 [3] = conditions: E. coli ST131; growth-curve assay
Method: as §3

K. pneumoniae ST258 [4] = conditions: checkerboard
Method: (§4) The potential synergistic effects in peptidomimetic-antibiotic combinations were assessed by using a two-dimensional checkerboard assay (Garcia, [2010]). Briefly, twofold dilutions of peptide and antibiotic were prepared in MBH II media along the X- and Y-axis, respectively, in 96-well plates. The inoculum was added to the plates, and subsequently these were incubated for 18–20 h. All steps for inoculum preparation and broth microdilution were in accordance with the CLSI guidelines (Clinical and Laboratory Standards Institute, [2013]). The fractional inhibitory concentration index (FICI) was calculated as [MICA(A+B)/MICA(alone)] + [MICB(A+B)/MICB(alone)], where MICA(A+B) represents the MIC of antibiotic (A) in combination with peptidomimetic (B), while MICB(A+B) represents the MIC of peptidomimetic (B) in combination with antibiotic (A). MICA(alone) and MICB(alone) represent the MIC of each compound individually. FICI values of ≤0.5 were interpreted as synergy.

P. aeruginosa ATCC 27853 = conditions: P. aeruginosa ATCC 27853; checkerboard
Method: as §4

E. coli ST131 [5] = conditions: checkerboard
Method: as §4

[6] = test system: P. aeruginosa clinical isolates and reference strains; assay: MIC of fixed-ratio peptidomimetic 1-antibiotic combinations in clinical isolates and reference strains; type: cell-based, Pseudomonas aeruginosa; conditions: with 1–8 μM of 1
Text: as §1, §2

E. coli ST131 [7] = assay: Potentiation of additional antibiotics (COMPAN1F plates), MIC; type: cell-based, Escherichia coli
Method: as §3

K. pneumoniae ST258 [8] = assay: as above; type: cell-based, Klebsiella pneumoniae
Method: as §3

| MIC (antibiotic alone) (K. pneumoniae ST258 [2]) | MIC (antibiotic alone) (P. aeruginosa ATTC 27853) | MIC (antibiotic alone) (E. coli ST131 [3]) | Antibiotic MIC alone (K. pneumoniae ST258 [4]) | Antibiotic MIC alone (P. aeruginosa ATCC 27853) | Antibiotic MIC alone (E. coli ST131 [5]) | MIC of antibiotic in combination, P. aeruginosa isolates (typical) [6] | SMILES | Antibiotic concentration to which most E. coli isolates proved susceptible in combination [1] | MBC (antibiotic alone) (K. pneumoniae ST258 [2]) | MBC (antibiotic alone) (P. aeruginosa ATTC 27853) | MBC (antibiotic alone) (E. coli ST131 [3]) | further results |
| --- | --- | --- | --- | --- | --- | --- | --- | --- | --- | --- | --- | --- |
| >32 µg/mL | >128 µg/mL | 8 µg/mL | 32 µg/mL | >128 µg/mL | 8 µg/mL | 4 to 8 µg/mL | CC[C@H]1OC(=O)[C@H](C)[C@@H](O[C@H]2C[C@@](C)(OC)[C@@H](O)[C@H](C)O2)[C@H](C)[C@@H](O[C@@H]2O[C@H](C)C[C@H](N(C)C)[C@H]2O)[C@](C)(O)C[C@@H](C)CN(C)[C@H](C)[C@@H](O)[C@]1(C)O [Azithromycin, azithromycin] | 2 to 4 µg/mL | >32 µg/mL | >128 µg/mL | >16 µg/mL | – |
| >16 µg/mL | >64 µg/mL | >4 µg/mL | 16 µg/mL | 32 µg/mL | 4 µg/mL | 0.5 µg/mL | CO[C@H]1/C=C/O[C@@]2(C)Oc3c(C)c(O)c4c(O)c(c(/C=N/N5CCN(C)CC5)c(O)c4c3C2=O)NC(=O)/C(C)=C\C=C\[C@H](C)[C@H](O)[C@@H](C)[C@@H](O)[C@@H](C)[C@H](OC(C)=O)[C@@H]1C [Rifampicin, rifampicin] | 0.25 to 0.5 µg/mL | >16 µg/mL | >64 µg/mL | >4 µg/mL | MIC of antibiotic in presence of peptidomimetic 26 (E. coli ST131 [7]; + 0.25 μM peptidomimetic 26): ≤1 µg/mL; MIC of antibiotic in presence of peptidomimetic 26 (E. coli ST131 [7]; + 0.25 μM peptidomimetic 26, listed as rifampicin): below 1 μg/mL; MIC of antibiotic in presence of peptidomimetic 1 (E. coli ST131 [7]; + 0.5 μM peptidomimetic 1): ≤1 µg/mL; MIC of antibiotic in presence of peptidomimetic 1 (E. coli ST131 [7]; + 0.5 μM peptidomimetic 1, listed as rifampicin): below 1 μg/mL; MIC of antibiotic in presence of peptidomimetic 15 (E. coli ST131 [7]; + 0.5 μM peptidomimetic 15): ≤1 µg/mL; MIC of antibiotic in presence of peptidomimetic 15 (E. coli ST131 [7]; + 0.5 μM peptidomimetic 15, listed as rifampicin): below 1 μg/mL; MIC (E. coli ST131 [7]; Escherichia coli, no peptidomimetic, read-out: MIC of antibiotic alone): > 2 µg/mL; MIC of antibiotic alone (E. coli ST131 [7]; no peptidomimetic): >2 µg/mL; MIC of antibiotic in presence of peptidomimetic 1 (K. pneumoniae ST258 [8]; + 1 μM peptidomimetic 1): ≤1 µg/mL; MIC of antibiotic in presence of peptidomimetic 1 (K. pneumoniae ST258 [8]; + 1 μM peptidomimetic 1, listed as rifampicin): below 1 μg/mL; MIC of antibiotic in presence of peptidomimetic 15 (K. pneumoniae ST258 [8]; + 1 μM peptidomimetic 15): ≤1 µg/mL; MIC of antibiotic in presence of peptidomimetic 15 (K. pneumoniae ST258 [8]; + 1 μM peptidomimetic 15, listed as rifampicin): below 1 μg/mL; MIC of antibiotic in presence of peptidomimetic 26 (K. pneumoniae ST258 [8]; + 1 μM peptidomimetic 26): ≤1 µg/mL; MIC of antibiotic in presence of peptidomimetic 26 (K. pneumoniae ST258 [8]; + 1 μM peptidomimetic 26, listed as rifampicin): below 1 μg/mL; MIC (K. pneumoniae ST258 [8]; Klebsiella pneumoniae, no peptidomimetic, read-out: MIC of antibiotic alone): > 2 µg/mL; MIC of antibiotic alone (K. pneumoniae ST258 [8]; no peptidomimetic): >2 µg/mL |
